Laboratory results as given in ChEMBL document CHEMBL4024768, “Discovery and Optimization of Thiazolidinyl and Pyrrolidinyl Derivatives as Inhaled PDE4 Inhibitors for Respiratory Diseases” (J Med Chem, 2017).

Assays:
[1] = Inhibition of PDE4 in human U937 cell lysates assessed as residual cAMP after 2.5 mins by LANCE assay
[2] = Inhibition of PDE4 in human PBMC assessed as reduction in LPS-induced TNFalpha release after 18 hrs by quantitative ELISA

Row | IC50 [1] [nM] | IC50 [2] [nM] | SMILES
1 | 0.06 | 0.34 | O=C(O[C@@H](Cc1c(Cl)c[n+]([O-])cc1Cl)c1ccc(OC(F)F)c(OCC2CC2)c1)[C@H]1CCCN1S(=O)(=O)c1ccccc1
2 | 0.094 | 0.203 | O=C(O[C@@H](Cc1c(Cl)c[n+]([O-])cc1Cl)c1ccc(OC(F)F)c(OCC2CC2)c1)[C@@H]1CCCCN1S(=O)(=O)c1ccccc1 (relative stereo)
3 | 0.504 | 4.2 | CS(=O)(=O)N1CCC[C@H]1C(=O)O[C@@H](Cc1c(Cl)c[n+]([O-])cc1Cl)c1ccc(OC(F)F)c(OCC2CC2)c1 (relative stereo)
4 | 0.0324 | 0.36 | COc1ccc(S(=O)(=O)N2CCC[C@H]2C(=O)O[C@@H](Cc2c(Cl)c[n+]([O-])cc2Cl)c2ccc(OC(F)F)c(OCC3CC3)c2)cc1OC (relative stereo)
5 | 6.4 |  | CN(C)C(=O)c1cccc(S(=O)(=O)N2CCS[C@@H]2C(=O)O[C@H](Cc2c(Cl)c[n+]([O-])cc2Cl)c2ccc(OC(F)F)c(OCC3CC3)c2)c1
6 | 0.028 | 0.86 | COCCC(=O)N1CCS[C@H]1C(=O)O[C@@H](Cc1c(Cl)c[n+]([O-])cc1Cl)c1ccc(OC(F)F)c(OCC2CC2)c1 (relative stereo)
7 | 0.061 | 0.07 | O=C(O[C@@H](Cc1c(Cl)c[n+]([O-])cc1Cl)c1ccc(OC(F)F)c(OCC2CC2)c1)[C@@H]1SCCN1S(=O)(=O)c1cccnc1 (relative stereo)
8 | 0.047 | 0.047 | CN(C)C(=O)c1cccc(S(=O)(=O)N2CCS[C@@H]2C(=O)O[C@@H](Cc2c(Cl)c[n+]([O-])cc2Cl)c2ccc(OC(F)F)c(OCC3CC3)c2)c1
9 |  | 0.57 | CN(C)C(=O)c1cccc(C(=O)N2CCS[C@H]2C(=O)O[C@@H](Cc2c(Cl)c[n+]([O-])cc2Cl)c2ccc(OC(F)F)c(OCC3CC3)c2)c1
10 | 0.021 | 0.04 | CN(C)C(=O)c1cccc(S(=O)(=O)N2CCS[C@H]2C(=O)O[C@@H](Cc2c(Cl)c[n+]([O-])cc2Cl)c2ccc(OC(F)F)c(OC3CCCC3)c2)c1 (relative stereo)
11 | 0.32 |  | O=C(c1ccccc1)c1ccsc1C(=O)O[C@@H](Cc1c(Cl)c[n+]([O-])cc1Cl)c1ccc(OC(F)F)c(OCC2CC2)c1
12 | 0.014 | 0.032 | COc1cc([C@H](Cc2c(Cl)c[n+]([O-])cc2Cl)OC(=O)[C@@H]2SCCN2S(=O)(=O)c2cccc(C(=O)N(C)C)c2)ccc1OC(F)F (relative stereo)
13 | 0.072 |  | O=C(O[C@@H](Cc1c(Cl)c[n+]([O-])cc1Cl)c1ccc(OC(F)F)c(OCC2CC2)c1)c1ccccc1
14 | 0.0533 | 0.38 | CN(C)C(=O)c1cccc(S(=O)(=O)N2CCC[C@@H]2C(=O)O[C@@H](Cc2c(Cl)c[n+]([O-])cc2Cl)c2ccc(OC(F)F)c(OCC3CC3)c2)c1 (relative stereo)
15 | 0.176 | 0.26 | O=C(O[C@@H](Cc1c(Cl)c[n+]([O-])cc1Cl)c1ccc(OC(F)F)c(OCC2CC2)c1)[C@@H]1SCCN1S(=O)(=O)c1ccccc1 (relative stereo)
16 | 3.01 |  | CN(C)C(=O)c1cccc(S(=O)(=O)N2CCS[C@H]2C(=O)O[C@H](Cc2c(Cl)c[n+]([O-])cc2Cl)c2ccc(OC(F)F)c(OCC3CC3)c2)c1
17 | 0.043 | 0.078 | COCCS(=O)(=O)N1CCS[C@H]1C(=O)O[C@@H](Cc1c(Cl)c[n+]([O-])cc1Cl)c1ccc(OC(F)F)c(OCC2CC2)c1 (relative stereo)
18 | 0.825 |  | O=C(O[C@@H](Cc1c(Cl)c[n+]([O-])cc1Cl)c1ccc(OC(F)F)c(OCC2CC2)c1)c1cccn1S(=O)(=O)c1ccccc1
19 |  | > 1000 | CN(C)C(=O)c1cccc(S(=O)(=O)N2CCS[C@H]2C(=O)O)c1
20 | 0.0442 | 0.31 | COCCS(=O)(=O)N1CCC[C@H]1C(=O)O[C@@H](Cc1c(Cl)c[n+]([O-])cc1Cl)c1ccc(OC(F)F)c(OCC2CC2)c1 (relative stereo)
21 | 0.323 |  | O=C(O[C@@H](Cc1c(Cl)c[n+]([O-])cc1Cl)c1ccc(OC(F)F)c(OCC2CC2)c1)c1ccccc1S(=O)(=O)c1ccccc1
